The values below come from ChEMBL document CHEMBL4680212, “Discovery of T-1101 tosylate as a first-in-class clinical candidate for Hec1/Nek2 inhibition in cancer therapy” (Eur J Med Chem, 2020).

Data set [1] in a line: AUC in CD-1 mouse at 10 mg/kg, po administered as single dose via gavage by LC-MS/MS analysis. Type of data set: ADME, organism-based. More on the design: dose 10 mg/kg. Conditions: in vivo.
Another data set concerns MDA-MB-468. Briefly: Antiproliferative activity against human MDA-MB-468 cells measured after 96 hrs by CellTiter 96 Aqueous One Solution Reagent based assay. The class given is functional, cell-based. Conditions: MDA-MB-468, 96 h.
The test system of data set [2] is MDA-MB-231. As to the kind of experiment: Antiproliferative activity against human MDA-MB-231 cells measured after 96 hrs by CellTiter 96 Aqueous One Solution Reagent based assay. The class given is functional, cell-based. Conditions: MDA-MB-231, 96 h.
For data set [3], the system named is K562. As to the kind of experiment: Antiproliferative activity against human K562 cells measured after 96 hrs by CellTiter 96 Aqueous One Solution Reagent based assay. Type of data set: functional, cell-based. Particulars: K562, 96 h.
For data set [4], the system named is HeLa. As to the kind of experiment: Antiproliferative activity against human HeLa cells measured after 96 hrs by CellTiter 96 Aqueous One Solution Reagent based assay. Type of data set: functional, cell-based.
Data set [5] in a line: Oral bioavailability in CD-1 mouse at 10 mg/kg administered as single dose via gavage by LC-MS/MS analysis. Type of data set: ADME, organism-based. Conditions: in vivo.
The subject of data set [6] is MDA-MB-231. Briefly: Antitumor activity against human MDA-MB-231 cells xenografted in SCID mouse assessed as tumor growth at 150 mg/kg, po administered twice daily for 28 days measured post last dose relative to control. Conditions: time 28 day. The class given is functional. (Xenograft models place foreign cells or tissue in a host animal.)
Data set [7] relates to K562. Briefly: Antiproliferative activity against human K562 cells measured after 96 hrs by MTT assay. Type of data set: functional, cell-based. Conditions: K562, 96 h.
Data set [8] relates to HeLa. Briefly: Induction of apoptosis in human HeLa cells assessed as decrease in cyclin A1 expression at 1 uM measured after 24 hrs by Western blot analysis. Type of data set: functional, cell-based.
In data set [9] the target is T1, HEC1/NEK2 (Homo sapiens) (UniProt P51955+O14777). As to the kind of experiment: Inhibition of Hec1-Nek2 protein-protein interaction in human K562 cells assessed as reduction in Nek2 level at 1 uM by Western blot analysis. Type of data set: cell-based. Conditions: TDE = time-dependent effect. A general note: A western blot detects proteins with antibodies after separation by electrophoresis.

In data set [10] the test system is HeLa. Briefly: Induction of apoptosis in human HeLa cells assessed as increase in cleaved caspase 3 protein expression at 1 uM measured after 24 hrs by Western blot analysis. The class given is functional, cell-based.
A further data set relates to MES-SA/Dx5. As to the kind of experiment: Antiproliferative activity against human MES-SA/Dx5 cells measured after 96 hrs by CellTiter 96 Aqueous One Solution Reagent based assay. Type of data set: functional, cell-based.
The subject of data set [11] is HeLa. As to the kind of experiment: Induction of apoptosis in human HeLa cells assessed as decrease in XIAP expression at 1 uM measured after 24 hrs by Western blot analysis. Type of data set: functional, cell-based.
Data set [12] relates to HeLa. Briefly: Induction of apoptosis in human HeLa cells assessed as decrease in cyclin B1 expression at 1 uM measured after 24 hrs by Western blot analysis. Type of data set: functional, cell-based.
Data set [13] concerns HeLa. As to the kind of experiment: Induction of apoptosis in human HeLa cells assessed as decrease in Mcl-1 expression at 1 uM measured after 24 hrs by Western blot analysis. The class given is functional, cell-based.
Data set [14] has as its system HeLa. As to the kind of experiment: Down regulation of Pgp expression in human HeLa cells. The class given is functional, cell-based.
Another data set has as its system NCI/ADR-RES. Briefly: Antiproliferative activity against human NCI/ADR-RES cells measured after 96 hrs by CellTiter 96 Aqueous One Solution Reagent based assay. The class given is functional, cell-based.
The test system of data set [15] is HeLa. Briefly: Induction of apoptosis in human HeLa cells assessed as increase in cleaved PARP protein expression at 1 uM measured after 24 hrs by Western blot analysis. Type of data set: functional, cell-based.
Data set [16] deals with T1, HEC1/NEK2 (Homo sapiens). Briefly: Inhibition of Hec1-Nek2 protein-protein interaction in human K562 cells at 100 nM measured after 6 hrs by coimmunoprecipitation assay. The class given is cell-based.
Data set [17] relates to MDA-MB-231. Briefly: Down regulation of Pgp expression in human MDA-MB-231 cells. The class given is functional, cell-based.
The test system of data set [18] is HeLa. Briefly: Induction of apoptosis in human HeLa cells assessed as decrease in cyclin D1 expression at 1 uM measured after 24 hrs by Western blot analysis. Type of data set: functional, cell-based.
Data set [19] can be described thus: Cmax in CD-1 mouse at 10 mg/kg, po administered as single dose via gavage by LC-MS/MS analysis. Type of data set: ADME, organism-based. More on the design: route oral, dose 10 mg/kg. Conditions: in vivo.
Data set [20] is described as follows: Half life in CD-1 mouse at 10 mg/kg, po administered as single dose via gavage by LC-MS/MS analysis. The class given is ADME, organism-based. Particulars: in vivo.
A short description of data set [21]: Tmax in CD-1 mouse at 10 mg/kg, po administered as single dose via gavage by LC-MS/MS analysis. The class given is ADME, organism-based. Particulars: in vivo.
Data set [22] is described as follows: Half life in Beagle dog at 10 mg/kg, po administered as single dose via gavage by LC-MS/MS analysis. Type of data set: ADME, organism-based, Canis lupus familiaris. Conditions: in vivo.
Data set [23] in a line: Tmax in Beagle dog at 10 mg/kg, po administered as single dose via gavage by LC-MS/MS analysis. The class given is ADME, organism-based, Canis lupus familiaris. Particulars: in vivo.
Data set [24] can be described thus: AUC in Beagle dog at 10 mg/kg, po administered as single dose via gavage by LC-MS/MS analysis. Type of data set: ADME, organism-based, Canis lupus familiaris. More on the design: dose 10 mg/kg. Particulars: in vivo.
Data set [25] in a line: Oral bioavailability in Beagle dog at 10 mg/kg administered as single dose via gavage by LC-MS/MS analysis. The class given is ADME, organism-based, Canis lupus familiaris. Conditions: in vivo.
Data set [26] can be described thus: Cmax in Beagle dog at 10 mg/kg, po administered as single dose via gavage by LC-MS/MS analysis. The class given is ADME, organism-based, Canis lupus familiaris. More on the design: route oral, dose 10 mg/kg. Conditions: in vivo.

pIC50: −log10 of the molar value. Activity calls are given as the source filed them. No cut-off for these calls is given here.

T1 sequence (O14777 whole entry, looked up): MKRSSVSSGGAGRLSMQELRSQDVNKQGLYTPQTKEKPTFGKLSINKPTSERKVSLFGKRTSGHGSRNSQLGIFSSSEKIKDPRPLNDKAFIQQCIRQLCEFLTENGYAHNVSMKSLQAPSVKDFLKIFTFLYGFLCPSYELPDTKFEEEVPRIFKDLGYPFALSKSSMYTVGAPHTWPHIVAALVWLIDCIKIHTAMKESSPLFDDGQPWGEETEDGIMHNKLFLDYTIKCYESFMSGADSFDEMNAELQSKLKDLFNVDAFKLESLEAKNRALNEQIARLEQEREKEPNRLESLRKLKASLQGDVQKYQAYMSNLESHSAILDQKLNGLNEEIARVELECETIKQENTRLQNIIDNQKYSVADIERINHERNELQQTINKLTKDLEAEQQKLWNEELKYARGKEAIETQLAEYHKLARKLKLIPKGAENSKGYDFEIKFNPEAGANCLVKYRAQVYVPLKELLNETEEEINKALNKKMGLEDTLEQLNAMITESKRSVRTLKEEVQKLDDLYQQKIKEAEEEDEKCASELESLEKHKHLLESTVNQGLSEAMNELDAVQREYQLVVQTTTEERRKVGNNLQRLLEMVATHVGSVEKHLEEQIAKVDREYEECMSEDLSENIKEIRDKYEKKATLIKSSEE
T1 sequence (P51955 whole entry, looked up): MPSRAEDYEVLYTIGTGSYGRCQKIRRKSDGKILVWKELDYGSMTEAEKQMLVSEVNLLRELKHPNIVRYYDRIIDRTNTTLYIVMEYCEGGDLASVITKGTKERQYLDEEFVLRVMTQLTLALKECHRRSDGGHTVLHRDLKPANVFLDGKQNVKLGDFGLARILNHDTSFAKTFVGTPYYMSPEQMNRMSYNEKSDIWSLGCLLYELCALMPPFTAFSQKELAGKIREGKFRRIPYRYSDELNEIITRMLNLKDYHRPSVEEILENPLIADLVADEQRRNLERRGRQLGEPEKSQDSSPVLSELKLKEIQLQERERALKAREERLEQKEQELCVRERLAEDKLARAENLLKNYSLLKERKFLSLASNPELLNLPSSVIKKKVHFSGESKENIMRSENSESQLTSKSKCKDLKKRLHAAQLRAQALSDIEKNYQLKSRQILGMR

On to `Cc1cc(Sc2cnc(OCCN(C)C)cn2)cc(C)c1-c1csc(NC(=O)c2ccncc2)n1`, for which, in [1], the AUC – broadly, concentration integrated over time – is 13.9 µM·h. The pIC50 (as a rule, the IC50 on a negative log10 scale, so that one unit is a factor of ten) with MDA-MB-468 was 7.27; in the data set on MDA-MB-231 [2] it was 7.02; with K562 [3], 7.23; with HeLa [4], 7.48.

In [1], `COCCOc1cnc(Sc2cc(C)c(-c3csc(NC(=O)c4ccncc4)n3)c(C)c2)cn1.Cl` yielded an AUC of 50.9 µM·h. Further, in [5], the bioavailability (in general, dose-corrected exposure relative to a reference, in per cent) stood at 84%.

On to `COc1ccc(Oc2cc(C)c(-c3csc(NC(=O)c4ccncc4)n3)c(C)c2)cc1`, for which the T/C (commonly the ratio of treated to control) in the data set on MDA-MB-231 [6] came out at 50%.

With `Cc1cc(C)c(-c2csc(NC(=O)/C=C/c3ccc(C(C)(C)C)cc3)n2)c(C)c1`, in the data set with K562 [7], the pIC50 is 6.10.

With `COCCOc1cnc(Sc2cc(C)c(-c3csc(NC(=O)c4ccncc4)n3)c(C)c2)cn1`, the outcome with HeLa [8], in the data set with HeLa [10], in the data set with MES-SA/Dx5, in the data set on HeLa [11], in the data set on HeLa [12] and in the data set on HeLa [13] was Active. Further, the outcome with HeLa [14], in the data set on NCI/ADR-RES, in the data set with HeLa [15], in the data set on MDA-MB-231 [17] and in the data set with HeLa [18] was Active. The Activity entry at HEC1/NEK2 (Homo sapiens) [9] is “Tde”. At HEC1/NEK2 (Homo sapiens) [16], the inhibition result was “Active”.

With `COCCOc1cnc(Sc2cc(C)c(-c3csc(NC(=O)c4ccncc4)n3)c(C)c2)cn1.CS(=O)(=O)O`, the exposure (AUC) in data set [1] was 47.5 µM·h. Besides, the bioavailability in data set [5] is 58.5%. In [19], the concentration peaked (Cmax) at 8.44 µM. Besides, the half-life (as a rule, how long it takes for the measured level to halve) in data set [20] is 3.38 h. Moreover, the Tmax – broadly, the time at which the peak concentration occurs – in [21] stood at 1.5 h.

Turning to `COCCOc1cnc(Sc2cc(C)c(-c3csc(NC(=O)c4ccncc4)n3)c(C)c2)cn1.Cc1ccc(S(=O)(=O)O)cc1`, the AUC is 62.5 µM·h in data set [1] and 8.61 µM·h in [24]. The bioavailability in data set [5] is 77.4%; in [25] it was 24.9%. Also, the half-life was 4.53 h in data set [22] and 2.81 h in data set [20]. The Tmax in [23] and in [21] was 1 h in each case. The results for the Cmax in data set [19] and in [26] were 8.13 µM and 0.98 µM, respectively.
